In brackets after ≈: the same amount, converted by molar mass.
Assays:
KB = assay: Cytotoxicity against human KB cells; format: functional, cell-based
Micrococcus luteus = assay: Antibacterial activity against Micrococcus luteus; format: functional
L1210 = assay: Cytotoxicity against mouse L1210 cells; format: functional, cell-based

MIC (Micrococcus luteus) | SMILES | IC50 (KB) | IC50 (L1210)
12.6 µg/mL (≈ 19.8 µM) | COc1ccc(C[C@H](N)C(=O)NCCc2cc(Br)c(OCCCN(C)C)c(Br)c2)cc1Br [SUBEREDAMINE A] | 9 µg/mL (≈ 14.1 µM) | 8 µg/mL (≈ 12.6 µM)
12.6 µg/mL (≈ 19.4 µM) | CN[C@@H](Cc1ccc(OC)c(Br)c1)C(=O)NCCc1cc(Br)c(OCCCN(C)C)c(Br)c1 [SUBEREDAMINE B] | > 10 µg/mL | 8.6 µg/mL (≈ 13.2 µM)
